Data reported in patent US20250339391A1, “METHODS FOR EFFECTIVE MANAGEMENT OF PAIN” (South Rampart Pharma, Inc., priority 2024, published 2025).
Entries after “also recorded” stand apart in the source; their conditions may differ.

What was measured:
Sprague-Dawley rats [1] = test: CFA inflammatory pain / von Frey with electronic detection (eVF); type: in vivo, rat; conditions: for antinociceptive activity, SRP-001 versus ApAP: 32 and 100 mg/kg, young and aged rats
Experimental: In this model of mechanonociception, one hind paw at a time is stimulated with an electronic von Frey (eVF) filament (noxious source) until the animal retracts the paw from the mechanical stimulus. von Frey tests were conducted in a dedicated room at the LSUHSC New Orleans Neuroscience Center of Excellence vivarium. Rats were acclimated to their environment for 2 days for 30 min/day prior to testing. To obtain eVF pressure recordings, each animal was placed in an individual plastic observation compartment on a perforated metallic grid platform, which provided access to the plantar surface of the hind paws. After acclimation to the environment for 30 min, mechanical hypersensitivity was assessed by stimulating the mid-plantar area of each hind paw with a rigid tip von Frey filament attached to the eVF meter (Ugo Basile 38450) until animals withdrew the paw from the filament. The withdrawal threshold was defined as the average force/pressure (g) required for the rat to withdraw the stimulated paw. A brisk withdrawal of the paw (often followed by a sustained retraction and/or licking) was considered a positive response, but paw withdrawals due to locomotion or weight shifting were not counted. The von Frey studies were conducted with an eVF device that electronically registers the grams of force necessary to elicit paw withdrawal in order to eliminate bias that confounded previous older versions of this test. Baseline withdrawal thresholds of both the right and left paws were recorded, and animals were assigned to different treatment groups so that each group had approximately equal withdrawal threshold averages in both paws. […] Doses at concentrations of 32 mg/kg and 100 mg/kg were tested in a cumulative dose-response manner and given at an interval of 60 min, and paw withdrawal threshold readings were measured using eVF as described above.

Sprague-Dawley rats [2] = test: CFA-induced inflammatory pain / Hargreaves thermal sensitivity assay; type: in vivo, rat; conditions: for analgesia, paw withdrawal latencies: 100 mg/kg
Source text: In these same cohorts of animals, we simultaneously measured their thermal nociception to hyperalgesia with the Hargreaves test using the plantar test apparatus (Ugo Basile 37570). In this experimental setup, the rodents are placed in plastic cages on top of a glass surface, and their hind paws are subjected to an infrared heat stimulus. One hind paw at a time is stimulated with the light source (noxious stimuli) until the animal retracts the paw from the glass surface because of the stimulus. Baseline withdrawal thresholds (latency) of both the right and left paws were recorded, and animals were assigned to different treatment groups so that each group had approximately equal withdrawal threshold averages in both paws. After baseline testing, treated animals received subcutaneous plantar injection (150 μl) of 50% CFA into the left hind paw, while control animals received a plantar injection (150 μl) of 0.9% NaCl into their left hind paw. CFA induces inflammation, resulting in a left hind paw that is hypersensitive to the thermal stimulus, while the right hind paw serves as a within-subject baseline for each animal. To obtain Hargreaves withdrawal latency recordings, each animal was placed in an individual plastic observation compartment on a glass platform, which provided access to the plantar surface of the hind paws from underneath. After acclimation to the environment for 30 min, thermal hypersensitivity was assessed by stimulating the mid-plantar area of each hind paw with a bright light source attached to the meter (Ugo Basile 37570) until animals withdrew the paw from the surface. The withdrawal threshold was defined as the average time (s) required for the rat to withdraw the stimulated paw. A brisk withdrawal of the paw (often followed by a sustained retraction and/or licking) was considered a positive response, but paw withdrawals due to locomotion or weight shifting were not counted. The Hargreaves studies were conducted with the plantar stimulation device that automatically registers the time (s) necessary to elicit paw withdrawal in order to eliminate bias in determining paw withdrawal thresholds. A cutoff of 20 s is pre-programmed so that the light source shuts off at that maximal period so as to not induce any burns on the plantar surface of the rodents. The Hargreaves test permits measurement of ipsilateral and contralateral heat thresholds, allowing each animal to serve as its own internal control in unilateral pain models. In addition, the Hargreaves test enables quantification of heat thresholds in unrestrained animals, reducing the likelihood of stress-induced responses.

CD-1 male mice = test: LPS fever induction antipyresis assay; type: in vivo, mouse; conditions: LPS 100 μg/kg ip, drug 75 mg/kg po, 2 h post drug
Experimental: Antipyresis experiments were carried out with n=60 CD-1 male mice weighing between 45-50 g. All mice were kept in a 12-h day/12-h night cycle with free access to food and water ad libitum. After habituating and acclimating the mice for a week, each mouse was briefly anesthetized for 1 min with 1% isoflurane and implanted subcutaneously a transmitter probe that records core body temperature—Implantable Programmable Temperature Transponder (IPTT-300) by Bio Medic Data Systems (BMDS), DE, USA. The mice were allowed to recover for at least one week from the surgery before any recordings were made and observed in their home cages prior to pyrogen challenge for inducing fever. Temperatures were recorded using the BMDS DAS-8027-IUS data reading system.
All mice were fasted overnight (15 h) with free access to water ad libitum prior to the pyrogen challenge. For the induction of fever, LPS from E. coli (100 μg/kg, 0111:B4) (MilliporeSigma, Billerica, MA, USA) was used. Mice received either LPS in 0.9% saline (sterile) (vehicle) or just 0.9% saline as an intraperitoneal (ip) injection.
Drug injection/concentration: All drugs and vehicle (10% DMSO: 10% labrasol:80% PEG400) were administered by oral gavage, PO dosing. Each dosing volume was ˜0.3-0.4 mL per mouse. […] We chose this dose to record antipyretic effect in a low dose that doesn't cause hypothermia in mice.

AM404 = test: LC-MS/MS quantification of AM404 production in periaqueductal gray; type: in vivo; conditions: rat, 32 mg/kg IP, 30 min, with CFA or vehicle
Experimental: Deuterated compound D10-SRP-001 was synthesized by Olon Ricerca Bioscience (Concord, OH), and purity was determined to be >99.9% by HPLC. This was used as pure analytical standard for detection of SRP-001 using an LC-MS/MS method. Similarly, pure analytical standard of AM404 (10 ng/mL) obtained from Cayman Chemical (Ann Arbor, MI) was used to characterize the full fragmentation pattern of AM404. […] Thirty min post-injection, the animals were sacrificed (same as in the CFA/von Frey model), their brains harvested, and the midbrain periaqueductal gray (PAG) region excised. SRP-001 or AM404 were extracted from the PAG using a liquid-liquid extraction method using 1:1 MeOH:H2O for LC-MS/MS and were loaded onto a liquid chromatography-tandem mass spectrophotometer for analysis. The mass spectrophotometer was operated in multiple reaction monitoring (MRM) mode using positive ion electrospray. D10-SRP-001 was detected by monitoring the m/z transition 416→186. AM404 was detected by monitoring the m/z transition 396→287.

[3] = young male and young female rats

Row | SMILES | antinociceptive activity, SRP-001 versus ApAP (Sprague-Dawley rats [1]) | analgesia, paw withdrawal latencies (Sprague-Dawley rats [2]; aged male rats) | analgesia, paw withdrawal latencies (Sprague-Dawley rats [2]; [3]) | antipyresis (CD-1 male mice) | AM404 production in the PAG (AM404) | equimolar (μmol/kg) ED50 / dose-response curve relative to ApAP (Sprague-Dawley rats [1]; von Frey, non-linear regression) | antinociception in Hargreaves assay (Sprague-Dawley rats [2]; young female and male rats and aged male rats) | AM404 production in the PAG (AM404; 32 mg/kg)
1 | CC(=O)Nc1ccc(O)cc1 [ApAP, acetaminophen] | comparable antinociceptive activity; also recorded: comparable analgesic activity | significant analgesia | significant analgesia | comparable antipyresis | diminished |  |  | 
2 | CCN(CC)C(=O)c1ccccc1S(=O)(=O)NCC(=O)Nc1ccc(O)cc1 [SRP-001, N,N-diethyl-2-[[2-(4-hydroxyanilino)-2-oxo-ethyl]sulfamoyl]benzamide] | comparable antinociceptive activity; also recorded: more efficacious than ApAP; also recorded: comparable analgesic activity | significant analgesia | significant analgesia | comparable antipyresis |  | shifted curves to the left; also recorded: comparable or improved ED50; also recorded: clear shift to the left | Antinociception was also confirmed | highest AM404 production; also recorded: produces more AM404 than ApAP
